This passage reports TGI and GI50 results from PubChem BioAssay (NCI).

Test in all cases: growth of human tumour cells (NCI), 48 h
The test system of assay [1] is SK-MEL-2 melanoma.
Assay [2] deals with SR leukemia.
In assay [3] the test system is IGROV1 ovarian.
Assay [4] concerns K-562 leukemia.
In assay [5] the test system is NCI-H226 lung.
Assay [6] relates to SK-OV-3 ovarian.
Assay [7] concerns HOP-62 NSCLC.
Assay [8] has as its system DU-145 prostate.
The test system of assay [9] is MDA-MB-435.
Assay [10] concerns MDA-MB-231 breast.

“And” between values parts separate entries of the source, which are not always exact repeats. Equal values may be shown once.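 In this assay, cells in 96-well plates receive the compound at five concentrations for 48 hours. Endpoints are linearly interpolated between the surrounding concentrations. GI50 marks 50% less growth. TGI is the concentration that stops growth completely.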 Some results are limits rather than exact numbers.

For `O=C1C2C3CC4C5C3C1C5C1(SCCS1)C42` (stereo not given), the TGI in assay [1], in assay [2], in [3], in assay [4], in assay [5] and in assay [6] was > 100 µM in each case. The TGI in [7] was > 100 µM.

Regarding `O=S(=O)(NCCCNc1cc(-c2cn(-c3ccccc3)nc2-c2cccc(O)c2)ccn1)c1ccc(C(F)(F)F)cc1`, the GI50 in assay [1] is 1.88 µM; in assay [2] it was 1.78 µM; in assay [8], 2.65 µM; in assay [3] it was 3.24 µM; in assay [4], 0.924 µM; in [9] it was 1.74 µM. Moreover, the GI50 in assay [5] was 2.31 µM; in assay [6], 2.39 µM; in [7], 1.95 µM. Besides, the TGI in assay [1] turned out to be 3.63 µM; in assay [2], 5.83 µM; in assay [8] it was 8.11 µM; in [3] it was 9.55 µM; in assay [4] it was 4.59 µM; in [9], 3.46 µM. The TGI in assay [5] is 6.25 µM; in [6], 5.95 µM; in assay [7], 3.78 µM.

As for `CC(=O)OC(C)(C)C1CC[C@]2(C)/C=C/C(C)C[C@@H](O)/C=C(\C)CC(O)C12` (stereo not given in full), the TGI in [1], in assay [2], in assay [3], in [4], in [5] and in [6] was > 100 µM each time. Moreover, the TGI in assay [7] is > 100 µM.

In the case of `COc1ccc(-c2csc3c2-n2cccc2C3=O)cc1`, the TGI in assay [10] was > 100 µM; in [1], > 79.9 µM; in [3], > 88.5 µM; in [6], 5.98 µM and 25.3 µM; in assay [7] it was > 72 µM. Also, the GI50 was 0.0111 µM in [1]; 0.00314 µM in assay [2]; 0.0601 µM in [8]; 0.0229 µM in assay [3]; 0.00275 µM in [4]; 0.0174 µM in assay [5]. Besides, the GI50 in assay [7] is 0.0986 µM.

As to `O=S1OC(c2ccccc2)(c2ccccc2)C(c2ccccc2)(c2ccccc2)O1`, the TGI in assay [2], in assay [3], in [4], in assay [5], in assay [6] and in assay [7] was > 100 µM throughout.

On to `COc1nc(NC2OC(COC(C)=O)C(OC(C)=O)C(OC(C)=O)C2OC(C)=O)c(N=CC=Nc2c(NC3OC(COC(C)=O)C(OC(C)=O)C(OC(C)=O)C3OC(C)=O)nc(OC)[nH]c2=O)c(=O)[nH]1` (stereo not given), for which the TGI in assay [3], in [4], in assay [5], in assay [6] and in assay [7] was > 100 µM each time.

For the compound `O=C(O)/C=C/c1ccc(O)c(O)c1`, the TGI in assay [1], in [8], in [3], in [4], in [5] and in assay [6] was > 100 µM each time. The TGI in assay [7] was > 100 µM.

Turning to `N#CCCNc1nonc1-c1nc2ccccc2n1CC(=O)c1ccc(N)cc1`, the GI50 in [1] was 0.498 µM; in assay [2], < 0.0135 µM; in assay [8], 0.0288 µM; in [3], 0.0356 µM; in assay [4], < 0.01 µM; in assay [9] it was < 0.01 µM. Also, the results for the GI50 in [5], in assay [6] and in [7] were 0.098 µM, 0.0189 µM and 0.0432 µM, respectively. In addition, the TGI in assay [2] was > 100 µM; in assay [8], 0.0984 µM; in assay [3] it was > 100 µM; in assay [4] it was > 100 µM; in assay [9], < 0.0166 µM; in [5], > 100 µM. Further, the TGI in assay [6] was 0.0665 µM; in assay [7], > 100 µM.

As for `CC(C)(CN1CCCCC1)C(=O)/C=C/c1ccccc1`, the TGI in assay [1] turned out to be 28.9 µM; in assay [3], 86.6 µM; in [4] it was 24.9 µM; in [5] it was 69.8 µM; in assay [6], 57.3 µM; in assay [7] it was 61.3 µM.

Take `O=C(CCc1n[nH]c(=S)o1)Nc1cc(Cl)ccc1Cl`: the TGI in assay [3] was > 100 µM; in assay [4], 52.1 µM; in assay [5], > 100 µM; in assay [6], > 100 µM; in [7], > 100 µM.

`CC1(OCc2ccccc2)C(=O)N2C1NCC2(C)C` (stereo not given): the TGI in [1], in assay [2], in [3], in [4], in [5] and in [7] was > 100 µM in each case.

On to `C/C(CN1C(=O)c2ccccc2C1=O)=N\NS(=O)(=O)c1ccc2ccccc2c1`, for which the TGI in assay [1], in assay [2], in assay [3], in assay [4], in assay [5] and in [6] was > 100 µM each time. Further, in [7], the TGI is > 100 µM.

On to `O=C(/C=C/c1ccccc1)NC1C=Nc2ccc([N+](=O)[O-])cc2NC1=O` (stereo not given), for which the TGI in assay [1], in [2], in [3], in [4], in [5] and in assay [6] was > 100 µM throughout. For the same compound, the TGI in assay [7] is > 100 µM.

Regarding `COC(=O)C(=O)C(C#N)c1nc2ccccc2s1` (stereo not given), the TGI in [1], in assay [3], in assay [4], in assay [5], in assay [6] and in [7] was > 100 µM each time.

For the compound `Cc1cc(N(CCC#N)CCC#N)ccc1/C=C(\NC(=O)/C=C/c1ccccc1)C(=O)N=[N+]=[N-]`, the TGI in [1], in assay [3], in assay [4], in assay [5], in assay [6] and in [7] was > 100 µM each time.

As to `CC(=O)C1(O)CC2(c3ccccc3)C(=O)C1(c1ccccc1)C(c1ccccc1)=C2c1ccccc1` (stereo not given), the TGI in assay [2], in assay [3], in [4], in assay [5], in assay [6] and in assay [7] was > 100 µM in each case.

As to `COC(=O)N[C@H]1CCc2cc(OC)c(OC)c(OC)c2-c2ccc(SC)c(=O)cc21`, the GI50 in assay [10] was < 0.01 µM; in assay [1] it was 1.76 µM; in assay [2], < 0.01 µM; in assay [8], < 0.01 µM; in assay [3] it was < 0.01 µM; in assay [4], < 0.01 µM. The GI50 in assay [5], in assay [6] and in [7] was < 0.01 µM throughout. Besides, the TGI in assay [10] was 29 µM; in assay [1] it was > 100 µM; in [2], > 100 µM; in assay [8], > 100 µM; in [3], > 100 µM; in assay [4], > 100 µM. Besides, the TGI in assay [6] and in [7] was > 100 µM throughout.

`C/C(=N/NC(=O)c1ccccc1S(N)(=O)=O)C(CN1CCCCC1)C(C1=C(O)C2C=CC=CC2OC1=O)c1ccccc1` (stereo not given): the TGI is > 100 µM in assay [1]; 61.8 µM in assay [2]; > 100 µM in assay [3]; > 100 µM in assay [4]; > 100 µM in assay [5]; > 100 µM in [6]. The TGI in [7] is > 100 µM.

For the compound `COc1ccc2c(c1)[C@@H](NC(C)=O)CCc1cc(OC)c(OC)c(OC)c1-2`, the TGI in assay [1] is > 21.5 µM; in assay [2], > 90.2 µM; in [8], 0.0433 µM; in assay [3], > 100 µM; in assay [4] it was > 100 µM; in [9], 0.0244 µM. For the same compound, the TGI was > 16.3 µM in assay [5], 4.1 µM in assay [6] and > 100 µM in assay [7].

For the compound `Cc1ccc(S(=O)c2ccccc2[N+](=O)[O-])cc1` (stereo not given), the TGI was > 100 µM in [1]; > 100 µM in assay [2]; > 100 µM in [3]; > 100 µM in [4]; 85.9 µM in assay [5]; > 100 µM in [6]. The TGI in [7] is > 100 µM.

As for `Cc1c(Cl)cccc1C(=O)Nc1nc2c(s1)CN(C(=O)Nc1cccc(C(F)(F)F)c1)CC2`, the GI50 in assay [10] was 0.59 µM; in [1] it was 0.283 µM; in assay [2], 0.0789 µM; in [8], 0.204 µM; in assay [3], 0.29 µM; in assay [4], 0.131 µM. Also, the GI50 is 0.213 µM in assay [5], 0.215 µM in assay [6] and 0.278 µM in [7]. The TGI in assay [10] is > 35.6 µM; in [1], > 50 µM; in assay [2], > 50 µM; in assay [8], > 50 µM; in [3], > 50 µM; in [4], > 50 µM. Also, the TGI in assay [5] is 7.65 µM; in assay [6], > 50 µM; in assay [7], > 50 µM.

Take `CC(=O)N1C/C(=C\c2ccccc2)C(=O)/C(=C/c2ccccc2)C1`: the TGI in [1] was 56.6 µM; in assay [2] it was 17.5 µM; in [3], 37.4 µM; in assay [4], 12.8 µM; in assay [5], 35.5 µM; in assay [6], > 54 µM. The TGI in assay [7] came to 39 µM.

In the case of `N#CC(C(=O)CCCC(=O)Nc1ccccc1[N+](=O)[O-])c1c(Cl)cccc1Cl` (stereo not given), the TGI in assay [1], in assay [2], in assay [3], in assay [4], in assay [5] and in [6] was > 100 µM throughout. The TGI in assay [7] was > 100 µM.

Turning to `N/N=c1/nc2n(c3ncccc13)C=CNN2`, the TGI in [1], in [2], in assay [3], in assay [4], in assay [5] and in [6] was > 100 µM in each case. Besides, the TGI in assay [7] was > 100 µM.

With `C[C@@H]1C(=O)CC2C(C)(C)CCC[C@]2(C)[C@@]12CC[C@]1(C=COC1)O2` (stereo not given in full), the TGI in assay [1] is 44.3 µM; in assay [2], 59 µM; in [3], > 100 µM; in assay [4], 80.4 µM; in assay [5], > 100 µM; in assay [6], 91.7 µM. In assay [7], the TGI was > 100 µM.

`CN(C)CC1CC/C(=C\c2ccc(Cl)c(Cl)c2)C1=O` (stereo not given): the TGI was > 62.9 µM in assay [1]; 6.91 µM in [2]; > 69.6 µM in [3]; > 27.1 µM in [4]; > 100 µM in [5]; > 100 µM in assay [6]. For the same compound, the TGI in assay [7] was > 95.1 µM.

In the case of `NC(N)NCCCc1cn2c(n1)C1CCCN1C(=O)C2Cc1ccccc1` (stereo not given), the TGI in assay [1], in assay [3], in assay [4], in [5], in assay [6] and in [7] was > 100 µM throughout.

As for `O=C([CH-]C(=O)c1ccccc1)c1ccccc1.O=C([CH-]C(=O)c1ccccc1)c1ccccc1.O=C([CH-]C(=O)c1ccccc1)c1ccccc1.[Ga+3]`, the GI50 in assay [1] is 43.8 µM; in assay [2] it was 9.53 µM; in assay [3], 81.9 µM; in assay [4], 30.9 µM; in assay [5] it was 26.1 µM; in [6] it was 63.5 µM. In addition, the TGI in assay [1], in assay [2], in [3], in assay [4], in assay [5] and in assay [6] was > 100 µM throughout.

Regarding `Cc1c(C(Cc2ccccc2N(C)C(=O)/C=C\C(=O)O)c2c[nH]c3ccccc23)c2ccccc2n1C` (stereo not given), the TGI amounted to 46.7 µM in assay [2]; 39.8 µM in assay [3]; 54.7 µM in [4]; 43 µM in [5]; 40.2 µM in assay [6]; 32.5 µM in assay [7].
